For this experiment, the target named is human APJ receptor (Homo sapiens (Human), UniProt P35414). Description: Intracellular cAMP accumulation assay (APJ hcAMP, HTRF). The class given is cell-based. The following applies: HEK293 cells stably expressing human APJ receptor, inhibition of forskolin-mediated cAMP production. A digest of the protocol:
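HEK293 cells stably expressing human APJ, 5,000 per well, exposed to compound with […] IBMX and 2 μM forskolin for 30 minutes at room temperature. cAMP measured by HTRF after lysis and 60 min detection incubation. EC50 from sigmoidal variable-slope fits of inhibition of forskolin-induced cAMP, quantified against a cAMP standard curve.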
For orientation: Changes in cAMP serve as a functional read-out for many G protein-coupled receptors.

Setting [1] is: read-out: hAPJ cAMP EC50 Potency range.
[2] abbreviates: read-out: Human APJ cAMP EC50 Potency range.

Read-outs that look alike come from different tables or passages of the source.

Sequence of human APJ receptor (P35414 whole entry): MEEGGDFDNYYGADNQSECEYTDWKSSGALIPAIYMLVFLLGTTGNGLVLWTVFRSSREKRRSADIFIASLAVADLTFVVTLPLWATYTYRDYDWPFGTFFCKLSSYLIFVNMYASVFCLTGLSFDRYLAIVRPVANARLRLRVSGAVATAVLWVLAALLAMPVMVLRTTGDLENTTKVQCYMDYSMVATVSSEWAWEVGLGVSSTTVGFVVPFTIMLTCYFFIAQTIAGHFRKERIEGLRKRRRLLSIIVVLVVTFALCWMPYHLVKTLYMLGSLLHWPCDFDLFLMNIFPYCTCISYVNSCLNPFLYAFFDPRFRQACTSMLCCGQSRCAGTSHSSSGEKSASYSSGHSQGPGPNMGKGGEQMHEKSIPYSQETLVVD

The term EC50 denotes the concentration that produces a half-maximal response. As to `CCCCc1[nH]c(=O)c(-c2nnc(Cc3csc(C)n3)o2)c(O)c1-c1cccc(C(C)C)c1` [Example 148, 6-butyl-4-hydroxy-3-{5-[(2-methyl-1,3-thiazol-4-yl)methyl]-1,3,4-oxadiazol-2-yl}-5-[3-(propan-2-yl)phenyl]-1,2-dihydropyridin-2-one], the EC50 under setting [1] lay within 0.01 to 10 nM.
The same measure, in the same setting: next, `CCCCc1[nH]c(=O)c(-c2nnc(Cc3csc(C)n3)o2)c(O)c1-c1cccc(C(=O)NC(C)C)c1` [Example 149, 3-(2-butyl-4-hydroxy-5-{5-[(2-methyl-1,3-thiazol-4-yl)methyl]-1,3,4-oxadiazol-2-yl}-6-oxo-1,6-dihydropyridin-3-yl)-N-(propan-2-yl)benzamide]: 0.01 to 10 nM; `CCCCc1[nH]c(=O)c(-c2nnc(Cc3csc(C)n3)o2)c(O)c1-c1cccc(C2CC2)c1` [Example 150, 6-butyl-5-(3-cyclopropylphenyl)-4-hydroxy-3-{5-[(2-methyl-1,3-thiazol-4-yl)methyl]-1,3,4-oxadiazol-2-yl}-1,2-dihydropyridin-2-one]: 0.01 to 10 nM; `CCCCc1[nH]c(=O)c(-c2nnc(Cc3csc(C)n3)o2)c(O)c1-c1cccc(OC)c1` [Example 151, 6-butyl-4-hydroxy-5-(3-methoxyphenyl)-3-{5-[(2-methyl-1,3-thiazol-4-yl)methyl]-1,3,4-oxadiazol-2-yl}-1,2-dihydropyridin-2-one]: 0.01 to 10 nM.
Turning to `CCCCc1[nH]c(=O)c(-c2nnc(Cc3csc(C)n3)o2)c(O)c1-c1cccc(CO)c1` [Example 152, 6-butyl-4-hydroxy-5-[3-(hydroxymethyl)phenyl]-3-{5-[(2-methyl-1,3-thiazol-4-yl)methyl]-1,3,4-oxadiazol-2-yl}-1,2-dihydropyridin-2-one], under setting [1], the EC50 lay within 10 to 100 nM.
Same read-out and setting: next, `CCCCc1[nH]c(=O)c(-c2nnc(Cc3csc(C)n3)o2)c(O)c1-c1cccc(N2CCCC2)c1` [Example 153, 6-butyl-4-hydroxy-3-{5-[(2-methyl-1,3-thiazol-4-yl)methyl]-1,3,4-oxadiazol-2-yl}-5-[3-(pyrrolidin-1-yl)phenyl]-1,2-dihydropyridin-2-one]: 10 to 100 nM.
As for `CCCCc1nc(O)c(-c2nnc(CNC)o2)c(O)c1-c1c(OC)cccc1OC` [Example 154, 6-butyl-5-(2,6-dimethoxyphenyl)-3-{5-[(methylamino)methyl]-1,3,4-oxadiazol-2-yl}pyridine-2,4-diol], under setting [2], the EC50 was in the range of 10 to 100 nM.
Same read-out and setting: next, `CCCCc1nc(O)c(-c2nnc(CN(C)C(=O)Cc3ccccc3)o2)c(O)c1-c1c(OC)cccc1OC` [Example 155, N-({5-[6-butyl-5-(2,6-dimethoxyphenyl)-2,4-dihydroxypyridin-3-yl]-1,3,4-oxadiazol-2-yl}methyl)-N-methyl-2-phenylacetamide]: 0.01 to 10 nM.
As to `CCCCc1nc(O)c(-c2nnc(CN(C)C(=O)c3cccc(Cl)c3)o2)c(O)c1-c1c(OC)cccc1OC` [Example 156, N-({5-[6-butyl-5-(2,6-dimethoxyphenyl)-2,4-dihydroxypyridin-3-yl]-1,3,4-oxadiazol-2-yl}methyl)-3-chloro-N-methylbenzamide], under setting [1], the EC50 fell in the range of 0.01 to 10 nM.
On to `CCCCc1nc(O)c(-c2nnc(CN(C)C(=O)c3ccccn3)o2)c(O)c1-c1c(OC)cccc1OC` [Example 157, N-({5-[6-butyl-5-(2,6-dimethoxyphenyl)-2,4-dihydroxypyridin-3-yl]-1,3,4-oxadiazol-2-yl}methyl)-N-methylpyridine-2-carboxamide], for which, under setting [1], the EC50 lay in the range of 0.01 to 10 nM.
With `CCCCc1nc(O)c(-c2nnc(CNC(=O)COC)o2)c(O)c1-c1c(OC)cccc1OC` [Example 158, N-({5-[6-butyl-5-(2,6-dimethoxyphenyl)-2,4-dihydroxypyridin-3-yl]-1,3,4-oxadiazol-2-yl}methyl)-2-methoxyacetamide], the EC50 under setting [1] was in the range of 0.01 to 10 nM.
The same measure, in the same setting: next, `CCCCc1nc(O)c(-c2nnc(CN(C)C(=O)c3ccncc3)o2)c(O)c1-c1c(OC)cccc1OC` [Example 159, N-({5-[6-butyl-5-(2,6-dimethoxyphenyl)-2,4-dihydroxypyridin-3-yl]-1,3,4-oxadiazol-2-yl}methyl)-N-methylpyridine-4-carboxamide]: 0.01 to 10 nM; `CCCCc1nc(O)c(-c2nnc(CNC(=O)c3cccnc3)o2)c(O)c1-c1c(OC)cccc1OC` [Example 160, N-({5-[6-butyl-5-(2,6-dimethoxyphenyl)-2,4-dihydroxypyridin-3-yl]-1,3,4-oxadiazol-2-yl}methyl)pyridine-3-carboxamide]: 0.01 to 10 nM; `CCCCc1nc(O)c(-c2nnc(CN(C)C(=O)c3ccccc3Cl)o2)c(O)c1-c1c(OC)cccc1OC` [Example 161, N-({5-[6-butyl-5-(2,6-dimethoxyphenyl)-2,4-dihydroxypyridin-3-yl]-1,3,4-oxadiazol-2-yl}methyl)-2-chloro-N-methylbenzamide]: 0.01 to 10 nM.
As for `CCCCc1nc(O)c(-c2nnc(CNC(=O)c3cccc(Cl)c3)o2)c(O)c1-c1c(OC)cccc1OC` [Example 162, N-({5-[6-butyl-5-(2,6-dimethoxyphenyl)-2,4-dihydroxypyridin-3-yl]-1,3,4-oxadiazol-2-yl}methyl)-3-chlorobenzamide], the concentration giving a half-maximal response (EC50) under setting [1] is 0.01 to 10 nM.
In the case of `CCCCc1nc(O)c(-c2nnc(CNC(=O)c3ccc(Cl)cc3)o2)c(O)c1-c1c(OC)cccc1OC` [Example 163, N-({5-[6-butyl-5-(2,6-dimethoxyphenyl)-2,4-dihydroxypyridin-3-yl]-1,3,4-oxadiazol-2-yl}methyl)-4-chlorobenzamide], the EC50 under setting [1] was 0.01 to 10 nM.
On the same count and under the same terms, the value for `CCCCc1nc(O)c(-c2nnc(CNC(=O)c3ccncc3)o2)c(O)c1-c1c(OC)cccc1OC` [Example 164, N-({5-[6-butyl-5-(2,6-dimethoxyphenyl)-2,4-dihydroxypyridin-3-yl]-1,3,4-oxadiazol-2-yl}methyl)pyridine-4-carboxamide] was 0.01 to 10 nM.
For `CCCCc1nc(O)c(-c2nnc(CN(C)C(=O)c3cccnc3)o2)c(O)c1-c1c(OC)cccc1OC` [Example 165, N-({5-[6-butyl-5-(2,6-dimethoxyphenyl)-2,4-dihydroxypyridin-3-yl]-1,3,4-oxadiazol-2-yl}methyl)-N-methylpyridine-3-carboxamide], the EC50 under setting [1] fell in the range of 0.01 to 10 nM.
In the case of `CCCCc1nc(O)c(-c2nnc(CNC(=O)Cc3ccccc3)o2)c(O)c1-c1c(OC)cccc1OC` [Example 166, N-({5-[6-butyl-5-(2,6-dimethoxyphenyl)-2,4-dihydroxypyridin-3-yl]-1,3,4-oxadiazol-2-yl}methyl)-2-phenylacetamide], the EC50 under setting [1] was in the range of 0.01 to 10 nM.
The same measure, in the same setting: next, `CCCCc1nc(O)c(-c2nnc(CNC(=O)C(C)(C)C)o2)c(O)c1-c1c(OC)cccc1OC` [Example 167, N-({5-[6-butyl-5-(2,6-dimethoxyphenyl)-2,4-dihydroxypyridin-3-yl]-1,3,4-oxadiazol-2-yl}methyl)-2,2-dimethyl-propanamide]: 0.01 to 10 nM.
For the compound `CCCCc1nc(O)c(-c2nnc(CNC(=O)c3ccccn3)o2)c(O)c1-c1c(OC)cccc1OC` [Example 168, N-({5-[6-butyl-5-(2,6-dimethoxyphenyl)-2,4-dihydroxypyridin-3-yl]-1,3,4-oxadiazol-2-yl}methyl)pyridine-2-carboxamide], under setting [1], the concentration giving a half-maximal response (EC50) is 0.01 to 10 nM.
Same read-out and setting: the value for `CCCCc1nc(O)c(-c2nnc(CN(C)C(=O)C(C)(C)C)o2)c(O)c1-c1c(OC)cccc1OC` [Example 169, N-({5-[6-butyl-5-(2,6-dimethoxyphenyl)-2,4-dihydroxypyridin-3-yl]-1,3,4-oxadiazol-2-yl}methyl)-N,2,2-trimethyl-propanamide] was 0.01 to 10 nM; that for `CCCCc1nc(O)c(-c2nnc(CN)o2)c(O)c1-c1c(OC)cccc1OC` [Example 170, 3-[5-(aminomethyl)-1,3,4-oxadiazol-2-yl]-6-butyl-5-(2,6-dimethoxyphenyl) pyridine-2,4-diol] was 10 to 100 nM.
Still for that read-out and setting: the value for `CCCCc1nc(O)c(-c2nnc(CNC(=O)c3ccccc3)o2)c(O)c1-c1c(OC)cccc1OC` [Example 171, N-({5-[6-butyl-5-(2,6-dimethoxyphenyl)-2,4-dihydroxypyridin-3-yl]-1,3,4-oxadiazol-2-yl}methyl) benzamide] was 0.01 to 10 nM.
As to `CCCCc1nc(O)c(-c2nnc(CN(C)C(=O)c3ccccc3)o2)c(O)c1-c1c(OC)cccc1OC` [Example 172, N-({5-[6-butyl-5-(2,6-dimethoxyphenyl)-2,4-dihydroxypyridin-3-yl]-1,3,4-oxadiazol-2-yl}methyl)-N-methylbenzamide], the EC50 under setting [1] fell in the range of 0.01 to 10 nM.
With `CCOCc1nc(O)c(-c2nnc(CNC(=O)c3ccccc3)o2)c(O)c1-c1c(OC)cccc1OC` [Example 173, N-({5-[5-(2,6-dimethoxyphenyl)-6-(ethoxymethyl)-2,4-dihydroxypyridin-3-yl]-1,3,4-oxadiazol-2-yl}methyl) benzamide], the concentration for a half-maximal effect (EC50) under setting [1] is 0.01 to 10 nM.
The same measure, in the same setting: the value for `CCCCc1nc(O)c(-c2nnc(CNC(=O)CC(C)C)o2)c(O)c1-c1c(OC)cccc1OC` [Example 174, N-({5-[6-butyl-5-(2,6-dimethoxyphenyl)-2,4-dihydroxypyridin-3-yl]-1,3,4-oxadiazol-2-yl}methyl)-3-methylbutanamide] was 0.01 to 10 nM; that for `CCCCc1nc(O)c(-c2nnc(CNC(C)=O)o2)c(O)c1-c1c(OC)cccc1OC` [Example 175, N-({5-[6-butyl-5-(2,6-dimethoxyphenyl)-2,4-dihydroxypyridin-3-yl]-1,3,4-oxadiazol-2-yl}methyl) acetamide] was 0.01 to 10 nM.
On to `CCCCc1nc(O)c(-c2nnc(CNC(=O)C(F)(F)F)o2)c(O)c1-c1c(OC)cccc1OC` [Example 176, N-({5-[6-butyl-5-(2,6-dimethoxyphenyl)-2,4-dihydroxypyridin-3-yl]-1,3,4-oxadiazol-2-yl}methyl)-2,2,2-trifluoroacetamide], for which the EC50 under setting [1] lay within 10 to 100 nM.
Turning to `CCCCc1nc(O)c(-c2nnc(CC(=O)N(CC)CC)o2)c(O)c1-c1c(OC)cccc1OC` [Example 177, 2-{5-[6-butyl-5-(2,6-dimethoxyphenyl)-2,4-dihydroxypyridin-3-yl]-1,3,4-oxadiazol-2-yl}-N,N-diethylacetamide], the EC50 under setting [2] was 0.01 to 10 nM.

These data come from US10336739B2, “4-hydroxy-3-(heteroaryl)pyridine-2-one APJ agonists” (BRISTOL-MYERS SQUIBB COMPANY, priority 2015, dated 2019).
